The values that follow come from PMC11995724, “Antibiotic target discovery by integrated phenotypic and activity-based profiling of electrophilic fragments” (Cell chemical biology, 2025).

One may read the viability as a read-out of living cells in per cent, often relative to untreated cells.

A short description of this data set: in vitro. Particulars: human, hek293t cells.
In the case of `C=CC(=O)NCc1noc2c1CC(C)(C)CC2` [2-L07, N-[(5,5-dimethyl-4,5,6,7-tetrahydro-1,2-benzoxazol-3-yl)methyl]prop-2-enamide], the viability at 48 h, 25 µM was 60%.
With `C=CC(=O)N1CCC(C(=O)N(CC)Cc2occc2C)CC1` [2-L08, N-ethyl-N-[(3-methylfuran-2-yl)methyl]-1-(prop-2-enoyl)piperidine-4-carboxamide] the figure was 88.8%; with `C=CC(=O)NCCn1cc(C2CCOC2)cn1` (stereo not drawn) [2-L09, N-{2-[4-(oxolan-3-yl)-1H-pyrazol-1-yl]ethyl}prop-2-enamide], 53.7%.
As to `C=CC(=O)N(CC)CC(=O)N1CCC(c2nncn2C)CC1` [2-L10, N-ethyl-N-{2-[4-(4-methyl-4H-1,2,4-triazol-3-yl)piperidin-1-yl]-2-oxoethyl}prop-2-enamide], the viability at 48 h, 25 µM was 72.6%.
As to `C=CC(=O)NCCNS(=O)(=O)c1cc(C)ccc1F` [2-L11, N-[2-(2-fluoro-5-methylbenzenesulfonamido)ethyl]prop-2-enamide], the viability at 48 h, 25 µM was 39.4%.
With `C=CC(=O)N1CCC(C(=O)N2CCCC2C2OCCO2)CC1` (stereo not drawn) [2-L12, 1-{4-[2-(1,3-dioxolan-2-yl)pyrrolidine-1-carbonyl]piperidin-1-yl}prop-2-en-1-one] the figure was 48.7%.
To `C=CC(=O)NC1CCCN(Cc2ccccc2)C1=O` (stereo not drawn) [2-L13, N-(1-benzyl-2-oxopiperidin-3-yl)prop-2-enamide] belongs 60.1%; to `C=CC(=O)N1CCC(C(=O)N2CCOC(c3cccc(F)c3)C2)CC1` (stereo not drawn) [2-L14, 1-{4-[2-(3-fluorophenyl)morpholine-4-carbonyl]piperidin-1-yl}prop-2-en-1-one], 102%; to `C=CC(=O)NCc1ccc2oc(=O)n(C)c2c1` [2-L15, N-[(3-methyl-2-oxo-2,3-dihydro-1,3-benzoxazol-5-yl)methyl]prop-2-enamide], 55%.
With `C=CC(=O)N1CCC(C(=O)N2CCCC(C3OCCO3)C2)CC1` (stereo not drawn) [2-L16, 1-{4-[3-(1,3-dioxolan-2-yl)piperidine-1-carbonyl]piperidin-1-yl}prop-2-en-1-one] the figure was 58%; with `C=CC(=O)NCc1ccccc1S(=O)(=O)N1CCCC1` [2-L17, N-{[2-(pyrrolidine-1-sulfonyl)phenyl]methyl}prop-2-enamide], 68.6%; with `C=CC(=O)Nc1ccc(C(=O)N(C)C[C@@H]2CCC(=O)N2)cc1` [2-L18, N-methyl-N-{[(2S)-5-oxopyrrolidin-2-yl]methyl}-4-(prop-2-enamido)benzamide], 98.8%.
For the molecule `C=CC(=O)NCC1(n2ccnn2)CC1` [2-L19, N-{[1-(1H-1,2,3-triazol-1-yl)cyclopropyl]methyl}prop-2-enamide], the viability at 48 h, 25 µM was 45.7%.
To `C=CC(=O)N1CCC(C(=O)N2CCCN(c3nccs3)CC2)CC1` [2-L20, 1-{4-[4-(1,3-thiazol-2-yl)-1,4-diazepane-1-carbonyl]piperidin-1-yl}prop-2-en-1-one] belongs 90.1%; to `C=CC(=O)N1CCCCC1C1CCCO1` (stereo not drawn) [2-L21, 1-[2-(oxolan-2-yl)piperidin-1-yl]prop-2-en-1-one], 66.2%; to `C=CC(=O)N1CCCC(Oc2ccnc(C(=O)NC)c2)C1` (stereo not drawn) [2-L22, N-methyl-4-{[1-(prop-2-enoyl)piperidin-3-yl]oxy}pyridine-2-carboxamide], 99.6%.
To `C=CC(=O)NC1CCN(c2ccccc2S(=O)(=O)CC)CC1` [2-M03, N-{1-[2-(ethanesulfonyl)phenyl]piperidin-4-yl}prop-2-enamide] belongs 82.2%; to `C=CC(=O)N(C)CC(=O)N1CCCC1c1nc(C)no1` (stereo not drawn) [2-M04, N-methyl-N-{2-[2-(3-methyl-1,2,4-oxadiazol-5-yl)pyrrolidin-1-yl]-2-oxoethyl}prop-2-enamide], 78.5%; to `C=CC(=O)N(Cc1ccc(OC)cc1)[C@@H]1CCCC[C@H]1O` [2-M05, N-[(1R,2R)-2-hydroxycyclohexyl]-N-[(4-methoxyphenyl)methyl]prop-2-enamide], 97.6%.
As for `C=CC(=O)NC(Cn1ccnc1)c1ccccc1` (stereo not drawn) [2-M06, N-[2-(1H-imidazol-1-yl)-1-phenylethyl]prop-2-enamide], the viability at 48 h, 25 µM stood at 84.5%.
Regarding `C=CC(=O)N1CCCCC1CNC(C)=O` (stereo not drawn) [2-M07, N-{[1-(prop-2-enoyl)piperidin-2-yl]methyl}acetamide], the viability at 48 h, 25 µM turned out to be 186%.
With `C=CC(=O)Nc1c(C)ccn2ncnc12` [2-M08, N-{7-methyl-[1,2,4]triazolo[1,5-a]pyridin-8-yl}prop-2-enamide] the figure was 92%.
To `C=CC(=O)NCCN1CCCCC1C` (stereo not drawn) [2-M09, N-[2-(2-methylpiperidin-1-yl)ethyl]prop-2-enamide] belongs 182%.
Consider `C=CC(=O)N1CCC(C(=O)Nc2nnc(CC)s2)CC1` [2-M10, N-(5-ethyl-1,3,4-thiadiazol-2-yl)-1-(prop-2-enoyl)piperidine-4-carboxamide], for which the viability at 48 h, 25 µM was 98.8%.
To `C=CC(=O)NCc1cccc(N2C(=O)NC3(CCCC3)C2=O)c1` [2-M11, N-[(3-{2,4-dioxo-1,3-diazaspiro[4.4]nonan-3-yl}phenyl)methyl]prop-2-enamide] belongs 89.7%.
With `C=CC(=O)NCCc1nc(-c2ccccc2)nn1C` [2-M12, N-[2-(1-methyl-3-phenyl-1H-1,2,4-triazol-5-yl)ethyl]prop-2-enamide] the figure was 87.7%; with `C=CC(=O)Nc1cnc2cc(C)nn2c1` [2-M13, N-{2-methylpyrazolo[1,5-a]pyrimidin-6-yl}prop-2-enamide], 136%.
With `C=CC(=O)NCCC(=O)Nc1nc2n(n1)CCCC2` [2-M14, N-[2-({5H,6H,7H,8H-[1,2,4]triazolo[1,5-a]pyridin-2-yl}carbamoyl)ethyl]prop-2-enamide] the figure was 109%.
For the molecule `C=CC(=O)N1CCOCC2(CC2)C1` [2-M15, 1-{5-oxa-8-azaspiro[2.6]nonan-8-yl}prop-2-en-1-one], the viability at 48 h, 25 µM is 180%.
Regarding `C=CC(=O)N1CCOCC1CC(=O)c1ccco1` (stereo not drawn) [2-M17, 1-{3-[2-(furan-2-yl)-2-oxoethyl]morpholin-4-yl}prop-2-en-1-one], the viability at 48 h, 25 µM is 194%.
To `C=CC(=O)NCc1ccc(C(=O)N2CCC(c3nnc(C)o3)CC2)cc1` [2-M18, N-({4-[4-(5-methyl-1,3,4-oxadiazol-2-yl)piperidine-1-carbonyl]phenyl}methyl)prop-2-enamide] belongs 87.6%; to `C=CC(=O)N[C@@H](CN(C)C)c1ccccc1` [2-M19, N-[(1R)-2-(dimethylamino)-1-phenylethyl]prop-2-enamide], 87.1%; to `C=CC(=O)NCc1nc(OC)cc(OC)n1` [2-M20, N-[(4,6-dimethoxypyrimidin-2-yl)methyl]prop-2-enamide], 99.2%.
Turning to `C=CC(=O)Nc1ccc(C(=O)NC2CCN(S(C)(=O)=O)CC2)cc1` [2-M21, N-(1-methanesulfonylpiperidin-4-yl)-4-(prop-2-enamido)benzamide], the viability at 48 h, 25 µM was found to be 90.2%.
With `C=CC(=O)NCc1nnc(C2CCOCC2)[nH]1` [2-M22, N-{[5-(oxan-4-yl)-4H-1,2,4-triazol-3-yl]methyl}prop-2-enamide] the figure was 93.3%; with `C=CC(=O)NCc1nc2ccccc2n1C1CC1` [2-N03, N-[(1-cyclopropyl-1H-1,3-benzodiazol-2-yl)methyl]prop-2-enamide], 69.4%; with `C=CC(=O)N(C)CC(=O)N1CCC(c2nc3c(s2)CCCC3)CC1` [2-N04, N-methyl-N-{2-oxo-2-[4-(4,5,6,7-tetrahydro-1,3-benzothiazol-2-yl)piperidin-1-yl]ethyl}prop-2-enamide], 92.5%.
With `C=CC(=O)NCCCn1ccnc1C#N` [2-N05, N-[3-(2-cyano-1H-imidazol-1-yl)propyl]prop-2-enamide] the figure was 76.3%.
With `C=CC(=O)N(CC)CC(=O)NC1CCN(C(C)=O)c2ccccc21` (stereo not drawn) [2-N06, N-{[(1-acetyl-1,2,3,4-tetrahydroquinolin-4-yl)carbamoyl]methyl}-N-ethylprop-2-enamide], the viability at 48 h, 25 µM came to 99.7%.
With `C=CC(=O)NC(c1nccs1)C(F)(F)F` (stereo not drawn) [2-N07, N-[2,2,2-trifluoro-1-(1,3-thiazol-2-yl)ethyl]prop-2-enamide], the viability at 48 h, 25 µM is 84.1%.
To `C=CC(=O)N(C)CC(=O)N1CCc2ccc(S(C)(=O)=O)cc2CC1` [2-N08, N-[2-(7-methanesulfonyl-2,3,4,5-tetrahydro-1H-3-benzazepin-3-yl)-2-oxoethyl]-N-methylprop-2-enamide] belongs 95.1%.
With `C=CC(=O)NC(c1ccc(F)cc1)c1nccn1C` (stereo not drawn) [2-N09, N-[(4-fluorophenyl)(1-methyl-1H-imidazol-2-yl)methyl]prop-2-enamide] the figure was 45.3%.
To `C=CC(=O)N(C)CC(=O)N1CCN(c2nsc3ccccc23)CC1` [2-N10, N-{2-[4-(1,2-benzothiazol-3-yl)piperazin-1-yl]-2-oxoethyl}-N-methylprop-2-enamide] belongs 1.45%.
As to `C=CC(=O)NCCn1nnc2ccccc21` [2-N11, N-[2-(1H-1,2,3-benzotriazol-1-yl)ethyl]prop-2-enamide], the viability at 48 h, 25 µM was found to be 67.3%.
With `C=CC(=O)N(CC)CC(=O)N1CCCC1c1cn(C)nc1C` (stereo not drawn) [2-N12, N-{2-[2-(1,3-dimethyl-1H-pyrazol-4-yl)pyrrolidin-1-yl]-2-oxoethyl}-N-ethylprop-2-enamide] the figure was 85.2%.
To `C=CC(=O)NCCCc1conc1C` [2-N13, N-[3-(3-methyl-1,2-oxazol-4-yl)propyl]prop-2-enamide] belongs 70.3%; to `C=CC(=O)N(C)CC(=O)NC1CCN(C(=O)c2ccc(C)cc2)CC1` [2-N14, N-methyl-N-({[1-(4-methylbenzoyl)piperidin-4-yl]carbamoyl}methyl)prop-2-enamide], 66.3%.
As for `C=CC(=O)NCCn1cnc2ccsc2c1=O` [2-N15, N-(2-{4-oxo-3H,4H-thieno[3,2-d]pyrimidin-3-yl}ethyl)prop-2-enamide], the viability at 48 h, 25 µM turned out to be 66%.
